Reference: article PMC3877901, “Screening Mangrove Endophytic Fungi for Antimalarial Natural Products” (Marine Drugs, 2013)
“Also recorded” adds a separate entry of the source. Where two headings read alike, the source gives them in different places.

Experiments:
[1] = test system: Plasmodium falciparum (3D7, a drug sensitive strain); experiment: Malaria assay: anti-malarial activity against Plasmodium falciparum (3D7); type: cell-based
[2] = test system: A549 human lung adenocarcinoma epithelial cells; experiment: In vitro toxicity assay: cytotoxicity against A549 cells (CellTiter 96 Aqueous One, 72 h); settings: for IC50: Homo sapiens, A549, 72 h, read-out: IC50 (nM) A549
[3] = test system: A549 human lung adenocarcinoma epithelial cells
[4] = Plasmodium falciparum 3D7, read-out: IC50 (nM) 3D7
[5] = Plasmodium falciparum, 3D7, read-out: IC50 (nM) 3D7

With `C[C@H]1CC(=O)O[C@@H]1[C@@]1(CO)CC(=O)c2c(ccc(-c3ccc(O)c4c3O[C@](CO)([C@H]3OC(=O)C[C@@H]3C)CC4=O)c2O)O1` [Compound 15, diaporthochromone A] the IC50 [1, 4] was over 25000 nM and the IC50 [2] was over 25000 nM.

In the case of `CC(=O)OC1C=CC(C)(O)C(=O)C(C)CC=CC2C(O)C(C)=C(C)C3C(Cc4ccccc4)NC(=O)C123` (centres unmarked) [Compound 2], the IC50 [1, 5] was 136 nM.

Compound `CC(=O)OC1C=CC(C)(O)C(=O)C(C)CC2OC2C2C3OC3(C)C(C)C3C(Cc4ccccc4)N(C)C(=O)C132` (centres unmarked) [Compound 7] has an IC50 [1, 5] of 290 nM.

In the case of `CCCCC/C=C(/C(=O)O)C(C)C(=O)O` (centres unmarked) [Compound 19, piliformic acid], the “antimalarial activity (in words)” value ([1]; P. falciparum 3D7) was “inactive”, the IC50 [1, 4] was over 25000 nM and the IC50 [2] was over 25000 nM.

For `CC(=O)OC[C@]12Oc3ccc(-c4ccc5c(c4O)C(=O)C4=C(O)C[C@@H](C)[C@@H](OC(C)=O)[C@]4(CO)O5)c(O)c3C(=O)C1=C(O)C[C@@H](C)[C@H]2OC(C)=O` [Compound 14, dicerandrol D], the “antimalarial activity (in words)” value [1] was “nanomolar antimalarial activity; also recorded: strong activity against P. falciparum; also recorded: nanomolar malaria activity”, the IC50 [1, 5] was 600 nM and the “cytotoxicity relative to malaria activity” value ([3]; human) was “at least 10 fold”. The “S.I. A549/3D7 (selectivity index)” value [2] was 13 and the IC50 [2] was 7800 nM.

For `CCCc1c(Cl)c(OC)cc(OC)c1C(=O)O` [Compound 11, acremonisol A], the “antimalarial activity (in words)” value ([1]; P. falciparum 3D7) was “devoid of antimalarial activity”, the IC50 [1, 4] was 36000 nM and the IC50 [2] was over 38700 nM.

For `CC(=O)OC[C@]12Oc3ccc(-c4ccc5c(c4O)C(=O)C4=C(O)C[C@@H](C)[C@@H](OC(C)=O)[C@@]4(CO)O5)c(O)c3C(=O)C1=C(O)C[C@@H](C)[C@H]2OC(C)=O` [Compound 13, Dicerandrol B], the “antimalarial activity (in words)” value [1] was “failed to show either activity”, the IC50 [1, 5] was over 25000 nM and the “cytotoxicity (in words)” value [3] was “failed to show either activity”. The IC50 [2] was over 25000 nM.

Compound `C[C@H]1[C@@H](O)O[C@@H]2O[C@@]3(C)CC[C@H]4[C@H](C)CC[C@@H]1[C@@]24OO3` [DHA, dihydroartemisinin, reference compound] has an IC50 [1, 4] of 0.8 nM and an IC50 [2] of over 25000 nM.

Compound `C=C1C(C)C2C(Cc3ccccc3)NC(=O)C23C(OC(C)=O)C=CC(C)(O)CC(C)CC=CC3C1O` (centres unmarked) [Compound 5] has an IC50 [1, 5] of under 20 nM.

With `C=C1[C@@H](C)[C@H]2[C@H](Cc3ccccc3)NC(=O)[C@]23[C@H](OC(C)=O)/C=C/[C@@](C)(O)C(=O)[C@@H](C)C/C=C/[C@H]3[C@@H]1O` [Compound 4, cytochalasin D] the IC50 [1, 5] was 25.8 nM.

With `CCC(C)CC(C)/C=C/C=C/C(=O)O` (centres unmarked) [Compound 18, (2E,4E)-6,8-Dimethyldeca-2,4-dienoic Acid] the “antimalarial activity (in words)” value ([1]; P. falciparum 3D7) was “inactive”, the IC50 [1, 4] was over 25000 nM and the IC50 [2] was over 25000 nM.

In the case of `COc1ccc(C)c2c1C(=O)OC(C)C2` (centres unmarked) [Compound 12, 3,5-dimethyl-8-methoxy-3,4-dihydroisocoumarin], the “antimalarial activity (in words)” value ([1]; P. falciparum 3D7) was “devoid of antimalarial activity”, the IC50 [1, 4] was over 48500 nM and the IC50 [2] was over 48500 nM.

In the case of `CC(=O)OC1C=CC(C)(O)C(=O)C(C)CC=CC2C3OC3(C)C(C)C3C(Cc4ccccc4)N(C)C(=O)C123` (centres unmarked) [Compound 8], the IC50 [1, 5] was 26 nM.

`CCN(CC)CCCC(C)Nc1ccnc2cc(Cl)ccc12` (centres unmarked) [CQ, chloroquine, reference compound] gave an IC50 [1, 5] of 4.5 nM and an IC50 [2] of over 25000 nM.

`O=C1C(O)=C([C@H]2CC[C@H](c3ccc(Cl)cc3)CC2)C(=O)c2ccccc21` [ATO, atovaquone, reference compound] was tested, and the IC50 [1, 4] was 0.3 nM and the IC50 [2] was over 25000 nM.

With `CC(=O)OC1C=CC(C)(O)C(=O)C(C)CC=CC2C(O)C3(C)OC3(C)C3C(Cc4ccccc4)NC(=O)C123` (centres unmarked) [Compound 3] the IC50 [1, 5] was under 20 nM.

Work on `CC1CC(=O)OC1C1(CO)CC(=O)c2c(ccc(-c3ccc4c(c3O)C(=O)CC(CO)(C3OC(=O)CC3C)O4)c2O)O1` (centres unmarked) [Compound 16, Diaporthochromone B] yielded an IC50 [1, 4] of over 25000 nM and an IC50 [2] of over 25000 nM.

For `C=C1C(C)C2C(Cc3ccccc3)NC(=O)C23C(O)C=CC(C)(O)CC(C)CC=CC3C1O` (centres unmarked) [Compound 6], the IC50 [1, 4] was under 20 nM.

With `C=C1C2CC3OC(=O)C=CC=CC(C(C)O)OCCC(C)=CC(=O)OCC4(CCC(C)=CC4O2)C13C` (centres unmarked) [Compound 10] the IC50 [1, 5] was under 20 nM and the IC50 [2] was under 200 nM.

`CC(=O)OC1C2OC2C(C)(O)C(=O)C(C)CC=CC2C(O)C(C)=C(C)C3C(Cc4ccccc4)NC(=O)C213` (centres unmarked) [Compound 1] was tested, and the IC50 [1, 5] was under 20 nM.
